{
  "source": "patent US20040033982A1",
  "about": "“Viral inhibition by n-docosanol” (priority 2001, published 2004)",
  "key": {"Friend virus": {"test_system": "Friend virus", "assay": "Friend virus induced leukemia and viremia in mice", "assay_type": "in vivo, BALB/c mice", "settings": "intravenous, day of virus and once daily for the next 3 days", "experimental": "FIG. 12 depicts data showing that n-docosanol inhibits in vivo Friend virus induced leukemia and viremia. Adult BALB/c mice were injected intravenously with 75 spleen focus-forming units of FV. Treated groups were injected intravenously with the indicated doses of n-docosanol or Pluronic vehicle alone on the same day as virus inoculation and once daily for the next 3 days. After 10 days, half of the animals in each group were sacrificed and examined for leukemic foci in their spleens (panel A). The remaining mice were retained 10 more days and bled for viremia determinations (panel B). Viremia was measured using the X-C plaque assay. Briefly, primary fibroblast cultures were derived by digestion of 14-day BALB/c embryos with trypsin and culturing in DMEM plus 10% fetal calf serum. After 72 hours, the cells were transferred into 16-mm dishes (10^5/well), pretreated with 5 μg/ml polybrene and then infected with 75 X-C plaque-forming units of Friend virus stock or dilution of test plasma. After incubation for 7 days, the cultures were irradiated and overlaid with X-C cells (3×10^5/well). Three days later, the cultures were washed, stained, and scored for plaques of multinucleated giant cells. The data presented are geometric means and standard errors of splenic foci or X-C plaque-forming units derived from three animals per group. […]"}, "HSV [1]": {"test_system": "HSV", "assay": "HSV-induced plaques in Vero versus MDBK cells", "assay_type": "cell-based", "text": "Of the counts that are metabolized in two cells lines, the relative amounts in the major classes of phosphatides that are formed, phosphatidylcholine and phosphatidylethanolamine, are not different in the two cell lines."}, "wild-type HSV-2": {"test_system": "wild-type HSV-2", "assay": "Plaque formation by wild-type HSV-2 in Vero cells", "assay_type": "cell-based", "settings": "FIG. 7, Panel A", "experimental": "FIG. 7 depicts data showing that n-docosanol inhibits acyclovir-resistant HSV-2. Vero cells were cultured in 35-mm wells (6×10^5 cells per well) in medium alone (=none) or in the presence of the indicated concentration of acyclovir, n-docosanol-Pluronic F-68 suspension or control suspension (Pluronic F-68 only). The cultures were inoculated 24 hours later with 150 PFU of either wild-type HSV-2 or an acyclovir-resistant laboratory isolate from the wild-type HSV-2 that was plaque purified and passaged in 20 μg/ml acyclovir 44 hours later, the plates were incubated, fixed, stained, and scored for numbers of plaques. The data presented are means of plaques scored from duplicate cultures. The percent inhibition observed in cultures treated with acyclovir or n-docosanol relative to untreated control cultures is denoted in parentheses."}, "HSV [2]": {"test_system": "HSV", "assay": "HSV antigens by ELISA, ICP4 immunofluorescence, secondary plaque assay", "assay_type": "cell-based", "text": "Thus, the amounts of both HSV core and envelope protein antigens detectable by ELISA, as well as the numbers of infected cells expressing the intranuclear HSV-specific immediate-early protein, ICP4, by immunofluorescence, are reduced by more than 80%. Finally, the replication of infectious virions as measured in secondary plaque assay cultures is markedly diminished by 99% or more in n-docosanol treated cells."}, "HIV-1": {"test_system": "HIV-1", "assay": "HIV-1 replication in PHA/IL-2-stimulated peripheral blood mononuclear cells (p24 ELISA)", "assay_type": "cell-based, human", "settings": "4 days after inoculation", "experimental": "FIG. 13 depicts data showing that n-docosanol inhibits in vitro replication of HIV-1 in cultures of PHA/IL-2-stimulated human peripheral blood mononuclear cells. Human peripheral blood mononuclear cells were cultured in medium containing 1 μg/ml PHA plus 5 units/ml IL-2 alone or also containing 100 μg/ml PFA, the indicated dosage of n-docosanol/Pluronic F68, or the amount of Pluronic F-68 control vehicle contained in the high dose of n-docosanol/Pluronic F-68. After overnight incubation, the cultures were inoculated with HIV-1 at a multiplicity of infection of 1 virion/cell. After 24 hours incubation at 37° C., the cultures were washed and inoculated with fresh medium containing PHA and IL-2, but lacking inhibitor. Replication of HIV-1 was determined 4 days later by quantitation of viral antigens by a p24-specific ELISA for HIV-1.\nThe initial studies on HIV were conducted in collaboration with a U.S. National Institutes of Health Laboratory and one of several experiments of this type is summarized in FIG. 13. Normal human peripheral blood mononuclear cells were activated with 1 μg/ml PHA plus 5 units/ml of IL-2 in medium alone or in the presence of n-docosanol, Pluronic […] control vehicle, or phosphonformic acid (PFA). The next day, the cultures were inoculated with HIV-1 and examined 4 days later for evidence of viral replication by detection of the p24 viral antigen."}, "HSV-I": {"test_system": "HSV-I", "assay": "Binding of [3H]HSV-I to Vero cells", "assay_type": "cell-based", "settings": "virus at 2 p.f.u./cell; n-docosanol 15 mM", "text": "Attachment of HSV-I to specific cell surface receptors is unaffected in n-docosanol-treated cells. Previous studies have verified that attachment of HSV-1 to specific cell surface receptors is unaffected in n-docosanol-treated cells. […] Heparin inhibited this interaction 96%."}, "HSV [3]": {"test_system": "HSV", "assay": "Inhibition of HSV replication, Tetronic versus Pluronic suspension", "assay_type": "cell-based", "text": "An initial step in conducting such studies involved switching to a different surfactant or suspending n-docosanol. Tetronic 908 is closely related to Pluronic F68; both are block copolymers of ethylene oxide and propylene oxide. However, whereas Pluronic is a bifunctionaI polymer with a molecular weight of 8,400, Tetronic 908 is a tetrfunctional copolymer, produced by adding propylene oxide and ethylene oxide to ethylenediamine and resulting in a molecule with an average molecular weight of 25,000. […] This appears to relate to the 3-fold higher levels of metabolic conversion in cells treated with n-docosanol in Tetronic."}},
  "note": "Entries after “also recorded” stand apart in the source; their conditions may differ.",
  "data": [
    {"smiles": "CCCCCCCCCCCCCCCCCCCCCCO", "note": "[n-docosanol]", "values": [
      {"measurement": "development of leukemic foci in spleens", "setting": "Friend virus; day 10", "value": "very clear dose-related inhibitory affect"},
      {"measurement": "development of viremia", "setting": "Friend virus; day 20", "value": "very clear dose-related inhibitory affect"},
      {"measurement": "effectiveness in inhibiting HSV-induced plaques, Vero versus MDBK cells", "setting": "HSV [1]", "value": "3-4 fold"},
      {"measurement": "inhibition of plaque formation", "setting": "wild-type HSV-2", "value": "inhibit plaque formation by wild type HSV-2 equally"},
      {"measurement": "reduction of HSV core and envelope protein antigens detectable by ELISA", "setting": "HSV [2]", "value": "more than 80%"},
      {"measurement": "reduction of numbers of infected cells expressing ICP4 by immunofluorescence", "setting": "HSV [2]", "value": "more than 80%"},
      {"measurement": "reduction of replication of infectious virions in secondary plaque assay cultures", "setting": "HSV [2]", "value": "≥ 99", "unit": "%"},
      {"measurement": "inhibitory activity against HIV-1 (p24 viral antigen)", "setting": "HIV-1", "value": "dose-related inhibitory activity; also recorded: comparable to that observed with the very potent antiviral compound, phosphonoformic acid (PFA)"},
      {"measurement": "inhibition of [3H]HSV-I binding", "setting": "HSV-I", "value": "bound normal levels"},
      {"measurement": "ED50 for inhibition of HSV replication relative to Tetronic", "setting": "HSV [3]; suspended in Pluronic", "value": "approximately 3 times higher"},
      {"measurement": "ED50 for inhibition of HSV replication", "setting": "HSV [3]; suspended in Tetronic", "value": "5 to 10", "unit": "mM"}
    ]}
  ]
}
